For test [1], the target named is T1, D(2) dopamine receptor (Homo sapiens, UniProt P14416). Briefly: Displacement of [3H]spiperone from human Dopamine receptor D2L expressed in CHO cells. Type of test: cell-based. For orientation: In a radioligand displacement assay an active substance lowers the binding of a labelled ligand.
The target in a further test is T2, D(4) dopamine receptor (Homo sapiens, UniProt P21917).
T2 sequence (P21917 whole entry): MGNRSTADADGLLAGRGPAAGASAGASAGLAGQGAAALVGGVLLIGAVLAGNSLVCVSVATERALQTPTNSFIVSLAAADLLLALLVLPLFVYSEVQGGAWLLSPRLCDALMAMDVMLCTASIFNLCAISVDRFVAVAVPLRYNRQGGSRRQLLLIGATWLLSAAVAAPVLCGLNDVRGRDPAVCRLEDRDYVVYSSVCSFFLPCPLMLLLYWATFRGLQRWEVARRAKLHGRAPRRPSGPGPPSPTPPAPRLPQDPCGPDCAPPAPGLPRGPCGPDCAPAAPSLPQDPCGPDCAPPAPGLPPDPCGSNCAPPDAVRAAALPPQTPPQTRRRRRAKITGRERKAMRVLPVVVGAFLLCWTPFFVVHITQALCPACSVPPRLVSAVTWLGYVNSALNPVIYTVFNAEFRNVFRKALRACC
Briefly: Displacement of [3H]spiperone from human Dopamine receptor D4.4 expressed in CHO cells. Type of test: cell-based.

The target of test [2] is T1, D(2) dopamine receptor. Briefly: Displacement of [3H]spiperone from human Dopamine receptor D2S expressed in CHO cells. Type of test: cell-based.
The target of a further test is D(3) dopamine receptor (Homo sapiens, UniProt P35462). Briefly: Displacement of [3H]spiperone from human Dopamine receptor D3 expressed in CHO cells. Type of test: cell-based.
Chain of D(3) dopamine receptor (P35462 whole entry): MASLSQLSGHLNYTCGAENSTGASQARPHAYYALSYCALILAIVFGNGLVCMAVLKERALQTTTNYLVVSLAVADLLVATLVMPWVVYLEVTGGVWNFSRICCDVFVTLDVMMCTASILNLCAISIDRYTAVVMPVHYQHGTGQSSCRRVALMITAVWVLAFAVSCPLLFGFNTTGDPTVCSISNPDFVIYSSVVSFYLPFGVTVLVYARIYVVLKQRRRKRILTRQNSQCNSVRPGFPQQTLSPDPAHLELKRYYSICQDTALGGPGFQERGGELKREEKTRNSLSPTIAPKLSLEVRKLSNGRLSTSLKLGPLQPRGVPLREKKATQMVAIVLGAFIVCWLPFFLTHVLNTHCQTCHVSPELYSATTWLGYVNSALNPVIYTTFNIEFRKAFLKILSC
Another test concerns the target D(1A) dopamine receptor (Bos taurus, UniProt Q95136). Put plainly: Displacement of [3H]SCH-23390 from bovine striatal membrane Dopamine receptor D1.

Our source for the Ki values is ChEMBL document CHEMBL1131871, “Piperidinylpyrroles: design, synthesis and binding properties of novel and selective dopamine D4 receptor ligands” (Bioorg Med Chem Lett, 1999).

Usually Ki stands for a dissociation constant, usually derived from enzyme kinetics or from competition with a known ligand. Higher therefore signals weaker binding.

Chain of D(1A) dopamine receptor (Q95136 whole entry): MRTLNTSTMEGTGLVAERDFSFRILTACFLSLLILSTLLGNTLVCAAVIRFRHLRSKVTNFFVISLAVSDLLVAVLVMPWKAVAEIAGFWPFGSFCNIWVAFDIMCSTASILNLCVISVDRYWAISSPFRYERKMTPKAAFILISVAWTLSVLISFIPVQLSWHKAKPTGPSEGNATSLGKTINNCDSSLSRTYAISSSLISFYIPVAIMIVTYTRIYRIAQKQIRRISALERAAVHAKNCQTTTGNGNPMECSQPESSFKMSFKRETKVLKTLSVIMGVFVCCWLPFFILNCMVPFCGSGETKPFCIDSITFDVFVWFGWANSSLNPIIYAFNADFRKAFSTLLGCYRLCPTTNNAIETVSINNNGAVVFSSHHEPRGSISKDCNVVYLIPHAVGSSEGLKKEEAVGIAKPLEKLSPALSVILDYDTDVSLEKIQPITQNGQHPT
T1 sequence (P14416 whole entry): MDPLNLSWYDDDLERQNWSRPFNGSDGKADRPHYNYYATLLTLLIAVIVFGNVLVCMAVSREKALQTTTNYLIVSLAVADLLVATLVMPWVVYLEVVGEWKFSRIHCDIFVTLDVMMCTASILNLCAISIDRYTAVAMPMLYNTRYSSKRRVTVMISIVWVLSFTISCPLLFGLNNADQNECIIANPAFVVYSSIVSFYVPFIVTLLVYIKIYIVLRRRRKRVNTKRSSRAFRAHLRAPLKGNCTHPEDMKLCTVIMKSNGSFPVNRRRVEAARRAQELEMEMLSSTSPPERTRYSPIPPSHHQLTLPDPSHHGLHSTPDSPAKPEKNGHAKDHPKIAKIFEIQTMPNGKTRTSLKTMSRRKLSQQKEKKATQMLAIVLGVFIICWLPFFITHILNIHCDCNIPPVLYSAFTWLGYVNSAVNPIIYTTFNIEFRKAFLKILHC

For the compound `C#Cc1cccn1C1CCN(Cc2ccccc2)CC1`, the Ki came out at 6.6 µM on D(2) dopamine receptor [1]; 0.94 µM on D(4) dopamine receptor; 6.3 µM on D(2) dopamine receptor [2]; 7.9 µM on D(3) dopamine receptor; 14 µM at D(1A) dopamine receptor.

Consider `c1ccc(CN2CCC(n3cccc3)CC2)cc1`, for which the Ki is 8.5 µM on D(2) dopamine receptor [1]; 1.1 µM on D(4) dopamine receptor; 9.8 µM at D(2) dopamine receptor [2]; 15 µM on D(3) dopamine receptor; 34 µM on D(1A) dopamine receptor.

Consider `N#CC(C#N)=Cc1cccn1C1CCN(Cc2ccccc2)CC1`, for which the Ki worked out at 11 µM at D(2) dopamine receptor [1]; 0.28 µM at D(4) dopamine receptor; 7.8 µM at D(2) dopamine receptor [2]; 5.1 µM at D(3) dopamine receptor; 15 µM at D(1A) dopamine receptor.

As for `C(#Cc1cccn1C1CCN(Cc2ccccc2)CC1)c1ccccc1`, the Ki is 10 µM on D(2) dopamine receptor [1]; 3.3 µM at D(4) dopamine receptor; 8.3 µM on D(2) dopamine receptor [2]; 8.7 µM at D(3) dopamine receptor; 16 µM on D(1A) dopamine receptor.

`C[Si](C)(C)C#Cc1cccn1C1CCN(Cc2ccccc2)CC1`: the Ki at D(2) dopamine receptor [1] is 6.2 µM; at D(4) dopamine receptor it was 2.7 µM; at D(2) dopamine receptor [2], 4.9 µM; on D(3) dopamine receptor it was 7.7 µM; on D(1A) dopamine receptor, 14 µM.

Regarding `Ic1cccn1C1CCN(Cc2ccccc2)CC1`, the Ki on D(2) dopamine receptor [1] is 8.5 µM; at D(4) dopamine receptor it was 1.5 µM; at D(2) dopamine receptor [2], 5.3 µM; at D(3) dopamine receptor it was 2.6 µM; on D(1A) dopamine receptor, 11 µM.

As for `N#CC(C#N)=Cc1ccn(C2CCN(Cc3ccccc3)CC2)c1`, the inhibition constant Ki on D(2) dopamine receptor [1] was determined as 13 µM; on D(4) dopamine receptor, 0.23 µM; at D(2) dopamine receptor [2], 18 µM; on D(3) dopamine receptor, 7 µM; on D(1A) dopamine receptor it was 14 µM.

As for `c1ccc(CN2CCC(n3cccc3-c3cnco3)CC2)cc1`, the Ki on D(2) dopamine receptor [1] amounted to 0.61 µM; on D(4) dopamine receptor, 0.063 µM; at D(2) dopamine receptor [2], 0.32 µM; on D(3) dopamine receptor, 0.77 µM; at D(1A) dopamine receptor it was 10 µM.

On to `O=Cc1cccn1C1CCN(Cc2ccccc2)CC1`, for which the Ki worked out at 1.4 µM on D(2) dopamine receptor [1]; 0.2 µM on D(4) dopamine receptor; 1.5 µM at D(2) dopamine receptor [2]; 2.5 µM on D(3) dopamine receptor; 5.8 µM at D(1A) dopamine receptor.

Turning to `O=Cc1ccn(C2CCN(Cc3ccccc3)CC2)c1`, the Ki on D(2) dopamine receptor [1] is 49 µM; at D(4) dopamine receptor, 0.96 µM; on D(2) dopamine receptor [2], 65 µM; on D(3) dopamine receptor it was 31 µM; at D(1A) dopamine receptor, 61 µM.

Regarding `c1ccc(CN2CCC(n3ccc(-c4cnco4)c3)CC2)cc1`, the Ki came out at 3.4 µM at D(2) dopamine receptor [1]; 0.13 µM on D(4) dopamine receptor; 3.2 µM on D(2) dopamine receptor [2]; 6.8 µM at D(3) dopamine receptor; 39 µM on D(1A) dopamine receptor.
